Test results taken from patent publication US20010021697A1, “METHODS AND COMPOSITIONS FOR THE TREATMENT OF MAMMALIAN INFECTIONS EMPLOYING MEDICAMENTS COMPRISING HYMENOPTERA VENOM, PROTEINAGEOUS OR POLYPEPTIDE COMPONENTS THEREOF, OR ANALOGUES OF SUCH PROTEINACEOUS OR POLYPEPTIDE COMPONENTS” (priority 1987, published 2001).
“And” between values parts separate entries of the source, which are not always exact repeats. Equal values may be shown once. Read-outs that look alike come from different tables or passages of the source.

Experiments:
Format in all cases: cell-based
Staphylococcus aureus = details: Venom 4 ug/ml; for optical density, AVERAGE: AVERAGE line; for optical density: single replicates
Pseudomonas aeruginosa = details: Venom 40 ug/ml; for optical density, AVERAGE: AVERAGE line; for optical density: single replicates
[1] = system: kanamycin resistant S. aureus; test: Checkerboard titration assay for synergy of honeybee venom with antibiotics (OD660 growth curves)
S. aureus = test: Equivalent doses of melittin fraction and whole honeybee venom with and without kanamycin (growth curves); details: doses of what is present: KANA = 2.5, MEL = 1.6, HBV = 2 (ug/ml)
[2] = 0 hours after innoculation, doses of what is present: Rifampicin .001 ug/ml
[3] = 0 hours after innoculation, doses of what is present: Rifampicin .01 ug/ml
[4] = 2 hours after innoculation, doses of what is present: Rifampicin .001 ug/ml
[5] = 2 hours after innoculation, doses of what is present: Rifampicin .01 ug/ml
[6] = 4 hours after innoculation, doses of what is present: Rifampicin .001 ug/ml
[7] = 4 hours after innoculation, doses of what is present: Rifampicin .01 ug/ml
[8] = 6 hours after innoculation, doses of what is present: Rifampicin .001 ug/ml
[9] = 6 hours after innoculation, doses of what is present: Rifampicin .01 ug/ml
[10] = 8 hours after innoculation, doses of what is present: Rifampicin .001 ug/ml
[11] = 8 hours after innoculation, doses of what is present: Rifampicin .01 ug/ml
[12] = 12 hours after innoculation, doses of what is present: Rifampicin .001 ug/ml
[13] = 12 hours after innoculation, doses of what is present: Rifampicin .01 ug/ml
[14] = 0 hours after innoculation, doses of what is present: Rifampicin 10 ug/ml
[15] = 0 hours after innoculation, doses of what is present: Rifampicin 20 ug/ml
[16] = 2 hours after innoculation, doses of what is present: Rifampicin 10 ug/ml
[17] = 2 hours after innoculation, doses of what is present: Rifampicin 20 ug/ml
[18] = 4 hours after innoculation, doses of what is present: Rifampicin 10 ug/ml
[19] = 4 hours after innoculation, doses of what is present: Rifampicin 20 ug/ml
[20] = 6 hours after innoculation, doses of what is present: Rifampicin 10 ug/ml
[21] = 6 hours after innoculation, doses of what is present: Rifampicin 20 ug/ml
[22] = 8 hours after innoculation, doses of what is present: Rifampicin 10 ug/ml
[23] = 8 hours after innoculation, doses of what is present: Rifampicin 20 ug/ml
[24] = 12 hours after innoculation, doses of what is present: Rifampicin 10 ug/ml
[25] = 12 hours after innoculation, doses of what is present: Rifampicin 20 ug/ml

CO[C@H]1/C=C/O[C@@]2(C)Oc3c(C)c(O)c4c(O)c(c(/C=N/N5CCN(C)CC5)c(O)c4c3C2=O)NC(=O)/C(C)=C\C=C\[C@H](C)[C@H](O)[C@@H](C)[C@@H](O)[C@@H](C)[C@H](OC(C)=O)[C@@H]1C [Rifampicin]
optical density, AVERAGE (Staphylococcus aureus; [2]): .046
optical density (Staphylococcus aureus; [2]): .046
optical density, AVERAGE (Staphylococcus aureus; [3]): .046
optical density (Staphylococcus aureus; [3]): .046
optical density, AVERAGE (Staphylococcus aureus; [4]): .072
optical density (Staphylococcus aureus; [4]): .081 (2×) and .072
optical density, AVERAGE (Staphylococcus aureus; [5]): .056
optical density (Staphylococcus aureus; [5]): .056 and .054 and .058
optical density, AVERAGE (Staphylococcus aureus; [6]): .807
optical density (Staphylococcus aureus; [6]): .855 and .765 and .800
optical density, AVERAGE (Staphylococcus aureus; [7]): .107
optical density (Staphylococcus aureus; [7]): .140 and .068 and .112
optical density, AVERAGE (Staphylococcus aureus; [8]): 1.17
optical density (Staphylococcus aureus; [8]): 1.18 and 1.16 and 1.17
optical density, AVERAGE (Staphylococcus aureus; [9]): .277
optical density (Staphylococcus aureus; [9]): .372 and .156 and .304
optical density, AVERAGE (Staphylococcus aureus; [10]): 1.26
optical density (Staphylococcus aureus; [10]): 1.27 and 1.26 (2×)
optical density, AVERAGE (Staphylococcus aureus; [11]): .898
optical density (Staphylococcus aureus; [11]): 1.07 and .625 and 1.00
optical density, AVERAGE (Staphylococcus aureus; [12]): 1.34
optical density (Staphylococcus aureus; [12]): 1.34
optical density, AVERAGE (Staphylococcus aureus; [13]): 1.32
optical density (Staphylococcus aureus; [13]): 1.32 and 1.34 and 1.30
optical density, AVERAGE (Pseudomonas aeruginosa; [14]): .033
optical density (Pseudomonas aeruginosa; [14]): .033
optical density, AVERAGE (Pseudomonas aeruginosa; [15]): .033
optical density (Pseudomonas aeruginosa; [15]): .033
optical density, AVERAGE (Pseudomonas aeruginosa; [16]): .080
optical density (Pseudomonas aeruginosa; [16]): .074 and .084 and .082
optical density, AVERAGE (Pseudomonas aeruginosa; [17]): .057
optical density (Pseudomonas aeruginosa; [17]): .053 and .056 and .063
optical density, AVERAGE (Pseudomonas aeruginosa; [18]): .647
optical density (Pseudomonas aeruginosa; [18]): .630 and .672 and .640
optical density, AVERAGE (Pseudomonas aeruginosa; [19]): .351
optical density (Pseudomonas aeruginosa; [19]): .375 and .326 and .380
optical density, AVERAGE (Pseudomonas aeruginosa; [20]): .837
optical density (Pseudomonas aeruginosa; [20]): .830 (2×) and .850
optical density, AVERAGE (Pseudomonas aeruginosa; [21]): .688
optical density (Pseudomonas aeruginosa; [21]): .660 and .645 and .700
optical density, AVERAGE (Pseudomonas aeruginosa; [22]): .882
optical density (Pseudomonas aeruginosa; [22]): .885 and .895 and .865
optical density, AVERAGE (Pseudomonas aeruginosa; [23]): .737
optical density (Pseudomonas aeruginosa; [23]): .730 and .720 and .760
optical density, AVERAGE (Pseudomonas aeruginosa; [24]): .841
optical density (Pseudomonas aeruginosa; [24]): .842 and .850 and .832
optical density, AVERAGE (Pseudomonas aeruginosa; [25]): .735
optical density (Pseudomonas aeruginosa; [25]): .730 (2×) and .745

NC[C@H]1O[C@H](O[C@H]2[C@H](O)[C@@H](O[C@H]3O[C@H](CO)[C@@H](O)[C@H](N)[C@H]3O)[C@H](N)C[C@@H]2N)[C@H](O)[C@@H](O)[C@@H]1O [Kanamycin]
MEAN A660 ([1]; KANA = 5, HBV = 0, T0): 0.016
MEAN A660 ([1]; KANA = 5, HBV = 0, T2): 0.047
MEAN A660 ([1]; KANA = 5, HBV = 0, T4): 0.204
MEAN A660 ([1]; KANA = 5, HBV = 0, T6): 0.282
MEAN A660 ([1]; KANA = 5, HBV = 0, T8): 0.351
MEAN A660 ([1]; KANA = 5, HBV = 0, T12): 0.751
MEAN A660 ([1]; KANA = 5, HBV = 0, T24): 1.152
MEAN A660 ([1]; KANA = 10, HBV = 0, T0): 0.016
MEAN A660 ([1]; KANA = 10, HBV = 0, T2): 0.047
MEAN A660 ([1]; KANA = 10, HBV = 0, T4): 0.135
MEAN A660 ([1]; KANA = 10, HBV = 0, T6): 0.172
MEAN A660 ([1]; KANA = 10, HBV = 0, T8): 0.200
MEAN A660 ([1]; KANA = 10, HBV = 0, T12): 0.397
MEAN A660 ([1]; KANA = 10, HBV = 0, T24): 1.164
MEAN A660 ([1]; KANA = 20, HBV = 0, T0): 0.016
MEAN A660 ([1]; KANA = 20, HBV = 0, T2): 0.047
MEAN A660 ([1]; KANA = 20, HBV = 0, T4): 0.123
MEAN A660 ([1]; KANA = 20, HBV = 0, T6): 0.145
MEAN A660 ([1]; KANA = 20, HBV = 0, T8): 0.166
MEAN A660 ([1]; KANA = 20, HBV = 0, T12): 0.220
MEAN A660 ([1]; KANA = 20, HBV = 0, T24): 0.975
MEAN A660 ([1]; KANA = 40, HBV = 0, T0): 0.016
MEAN A660 ([1]; KANA = 40, HBV = 0, T2): 0.047
MEAN A660 ([1]; KANA = 40, HBV = 0, T4): 0.116
MEAN A660 ([1]; KANA = 40, HBV = 0, T6): 0.146
MEAN A660 ([1]; KANA = 40, HBV = 0, T8): 0.161
MEAN A660 ([1]; KANA = 40, HBV = 0, T12): 0.184
MEAN A660 ([1]; KANA = 40, HBV = 0, T24): 0.697
MEAN A660 (S. aureus; T0): 0.021
MEAN A660 (S. aureus; T2): 0.080
MEAN A660 (S. aureus; T4): 0.692
MEAN A660 (S. aureus; T6): 1.114
MEAN A660 (S. aureus; T8): 1.217
MEAN A660 (S. aureus; T12): 1.265
MEAN A660 (S. aureus; T24): 1.330
